# According to patent US12077503B2, “Substituted cyclic amides and their use as herbicides” (FMC CORPORATION, priority 2015, dated 2024):
# Key:
# Type in all cases: in vivo
# [1] = test system: giant foxtail (Setaria faberii); assay: Test A postemergence; conditions: Setaria faberi, post-emergence, 240 h, 125 g ai/ha, postemergence; visual injury after approximately 10 d; 0 to 100 scale (0 no effect, 100 complete control); read-out: Plant response rating, Foxtail, Giant
# Method in brief: (§1)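 Each rating is a visual injury score from 0 to 100 given about 10 d after treatment, judged against untreated controls kept alongside in the greenhouse. In loam soil–sand blend, seeds got a preemergence directed soil spray, while postemergence plants were 2 to 10 cm tall at spraying.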
# [2] = test system: wheat (Triticum aestivum); assay: Test A postemergence; conditions: Triticum aestivum, post-emergence, 240 h, 125 g ai/ha, postemergence; visual injury after approximately 10 d; 0 to 100 scale (0 no effect, 100 complete control); read-out: Plant response rating, Wheat
# Method in brief: as §1
# [3] = test system: corn (Zea mays); assay: Test A postemergence; conditions: Zea mays, post-emergence, 240 h, 125 g ai/ha, postemergence; visual injury after approximately 10 d; 0 to 100 scale (0 no effect, 100 complete control)
# Method in brief: as §1
# [4] = test system: Kochia (Kochia scoparia); assay: Test A postemergence; conditions: Bassia scoparia, post-emergence, 240 h, 125 g ai/ha, postemergence; visual injury after approximately 10 d; 0 to 100 scale (0 no effect, 100 complete control); read-out: Plant response rating, Kochia
# Method in brief: as §1
# [5] = test system: ryegrass, Italian (Italian ryegrass, Lolium multiflorum); assay: Test A postemergence; conditions: Lolium multiflorum, post-emergence, 240 h, 125 g ai/ha, postemergence; visual injury after approximately 10 d; 0 to 100 scale (0 no effect, 100 complete control); read-out: Plant response rating, Ryegrass, Italian
# Method in brief: as §1
# [6] = test system: ragweed (common ragweed, Ambrosia elatior); assay: Test A postemergence; conditions: Ambrosia artemisiifolia, post-emergence, 240 h, 125 g ai/ha, postemergence; visual injury after approximately 10 d; 0 to 100 scale (0 no effect, 100 complete control); read-out: Plant response rating, Ragweed
# Method in brief: as §1
# [7] = test system: blackgrass (Alopecurus myosuroides); assay: Test A postemergence; conditions: Alopecurus myosuroides, post-emergence, 240 h, 125 g ai/ha, postemergence; visual injury after approximately 10 d; 0 to 100 scale (0 no effect, 100 complete control); read-out: Plant response rating, Blackgrass
# Method in brief: as §1
# [8] = test system: barnyardgrass (Echinochloa crus-galli); assay: Test A postemergence; conditions: Echinochloa crus-galli, post-emergence, 240 h, 125 g ai/ha, postemergence; visual injury after approximately 10 d; 0 to 100 scale (0 no effect, 100 complete control); read-out: Plant response rating, Barnyardgrass
# Method in brief: as §1
# [9] = test system: Galium (catchweed bedstraw, Galium aparine); assay: Test A postemergence; conditions: Galium, post-emergence, 240 h, 125 g ai/ha, postemergence; visual injury after approximately 10 d; 0 to 100 scale (0 no effect, 100 complete control); read-out: Plant response rating, Galium
# Method in brief: as §1
# [10] = test system: pigweed (Amaranthus retroflexus); assay: Test A postemergence; conditions: Amaranthus retroflexus, post-emergence, 240 h, 125 g ai/ha, postemergence; visual injury after approximately 10 d; 0 to 100 scale (0 no effect, 100 complete control); read-out: Plant response rating, Pigweed
# Method in brief: as §1
# [11] = test system: barnyardgrass (Echinochloa crus-galli); assay: Test B flooded paddy test; conditions: Echinochloa crus-galli, Flood, 250 g ai/ha; scale of 0 to 100 where 0 is no effect and 100 is complete control; read-out: Barnyardgrass plant response rating
# Method in brief: (§2)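 Rating scale 0–100 (visual, vs untreated controls) after a 13–15 d greenhouse period; application to the flood layer, 3 cm above soil and maintained; plants at 2-leaf stage when treated.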
# [12] = test system: rice (Oryra sativa); assay: Test B flooded paddy test; conditions: Oryza sativa, Flood, 250 g ai/ha; scale of 0 to 100 where 0 is no effect and 100 is complete control; read-out: Rice plant response rating
# Method in brief: as §2
# [13] = test system: ducksalad (Heteranthera limosa); assay: Test B flooded paddy test; conditions: Heteranthera limosa, Flood, 250 g ai/ha; scale of 0 to 100 where 0 is no effect and 100 is complete control; read-out: Ducksalad plant response rating
# Method in brief: as §2
# [14] = test system: sedge, umbrella (small-flower umbrella sedge, Cyperus difformis); assay: Test B flooded paddy test; conditions: Cyperus difformis, Flood, 250 g ai/ha; scale of 0 to 100 where 0 is no effect and 100 is complete control; read-out: Sedge, Umbrella plant response rating
# Method in brief: as §2
Structure (SMILES),pest or weed control at 125 g/ha [1] [%],plant injury at 125 g/ha [2] [%],"Corn plant response rating (crop injury, 0 = no effect, 100 = complete kill) at 125 g/ha [3] [%]",pest or weed control at 125 g/ha [4] [%],pest or weed control at 125 g/ha [5] [%],pest or weed control at 125 g/ha [6] [%],pest or weed control at 125 g/ha [7] [%],pest or weed control at 125 g/ha [8] [%],pest or weed control at 125 g/ha [9] [%],pest or weed control at 125 g/ha [10] [%],pest or weed control at 250 g/ha [11] [%],pest or weed control at 250 g/ha [12] [%],pest or weed control at 250 g/ha [13] [%],pest or weed control at 250 g/ha [14] [%]
C=CCN1C[C@H](c2ccc(OC)c(F)c2)[C@@H](C(=O)Nc2cccc(F)c2F)C1=O [Compound 722],0,0,0,0,0,0,0,20,0,0,0,0,0,0
C=CCN1C[C@H](c2ccc(OC)c(F)c2)[C@@H](C(=O)Nc2ccccc2S(C)(=O)=O)C1=O [Compound 724],0,0,0,0,0,0,0,0,0,0,0,0,0,0
Cc1cc([C@H]2CNC(=O)[C@@H]2C(=O)Nc2ccc(F)cc2F)ccc1Br [Compound 725],0,0,0,0,0,0,0,70,20,0,0,0,100,0
CN1C[C@H](c2ccc(C(F)(F)F)cc2)[C@@H](C(=O)Nc2ccccc2C(F)(F)F)C1=O [Compound 726],90,30,60,30,40,30,50,90,50,50,55,0,100,0
Cc1ccc([C@H]2CNC(=O)[C@@H]2C(=O)Nc2cccc(F)c2F)s1 [Compound 729],0,0,0,0,0,0,0,0,0,0,60,0,100,0
CSc1ccccc1NC(=O)[C@H]1C(=O)N(C)C[C@@H]1c1ccc(C)c(C)c1 [Compound 733],80,20,0,0,20,0,0,90,20,0,20,0,60,0
CSc1ccccc1NC(=O)[C@H]1C(=O)N(C)C[C@@H]1c1cc(F)cc(F)c1 [Compound 738],70,0,20,20,0,0,0,80,50,20,40,0,100,0
CN1C[C@H](c2cc(F)cc(F)c2)[C@@H](C(=O)Nc2ccccc2S(C)(=O)=O)C1=O [Compound 739],90,0,20,30,20,30,0,90,50,20,60,0,100,0
CN1C[C@H](c2ccc3c(c2)CCC3)[C@@H](C(=O)Nc2ccccc2F)C1=O [Compound 742],90,60,70,30,60,20,40,90,50,0,60,0,100,0
CN1C[C@H](c2ccc3c(c2)CCC3)[C@@H](C(=O)Nc2cccc(F)c2F)C1=O [Compound 743],90,50,60,30,40,0,30,90,50,0,65,20,95,0
CN1C[C@H](c2ccc3c(c2)CCC3)[C@@H](C(=O)Nc2ccccc2S(C)(=O)=O)C1=O [Compound 744],80,50,40,30,30,20,20,60,30,0,60,0,85,0
